Assays:
ERα [1] = molecular target: T1, ERα (Homo sapiens, UniProt P03372); conditions: cited from earlier work
T1 sequence (P03372 1-595): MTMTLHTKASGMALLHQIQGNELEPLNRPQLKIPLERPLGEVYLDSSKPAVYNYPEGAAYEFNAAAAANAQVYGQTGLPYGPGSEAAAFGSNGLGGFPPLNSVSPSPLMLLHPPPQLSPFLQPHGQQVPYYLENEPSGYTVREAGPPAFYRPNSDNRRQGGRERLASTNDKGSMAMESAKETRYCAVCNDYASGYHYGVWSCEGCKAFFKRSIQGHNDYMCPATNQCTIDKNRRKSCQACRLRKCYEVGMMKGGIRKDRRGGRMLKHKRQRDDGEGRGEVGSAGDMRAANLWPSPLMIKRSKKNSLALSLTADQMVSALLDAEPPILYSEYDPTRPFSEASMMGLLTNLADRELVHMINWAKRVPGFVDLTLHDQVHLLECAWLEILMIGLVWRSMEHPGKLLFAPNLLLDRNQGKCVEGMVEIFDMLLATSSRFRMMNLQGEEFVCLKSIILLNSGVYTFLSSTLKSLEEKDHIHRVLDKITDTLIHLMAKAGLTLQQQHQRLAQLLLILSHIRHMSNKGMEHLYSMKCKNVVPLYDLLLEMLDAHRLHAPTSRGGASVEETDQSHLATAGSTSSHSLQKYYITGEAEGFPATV

ERα [2] = molecular target: T1, ERα; conditions: cited from earlier work; remark: listed apart in the source
ERα [3] = molecular target: T1, ERα; assay: competitive radiometric binding assay, ERα
ERα [4] = molecular target: T1, ERα; assay: estrogen-responsive reporter gene cotransfection assay in HEC-1 cells, ERα

## CCCc1c(-c2ccc(O)cc2)nn(-c2ccc(O)cc2)c1-c1ccc(O)cc1 [PPT, propyl-pyrazole-triol]
ERα [1]
  agonist potency on ERα versus ERβ: ca. 1000 fold
ERα [2]
  affinity on ERα versus ERβ: ca. 1000 fold

## Cc1c(-c2ccc(O)cc2)nn(-c2ccc(O)cc2)c1-c1ccc(/C=C/C(=O)N2CCCCC2)cc1 [compound 2]
ERα [3]; compared with MPP and 1
  binding (in words): markedly lower

## Cc1c(-c2ccc(O)cc2)nn(-c2ccc(O)cc2)c1-c1ccc(CCCN2CCCCC2)cc1 [compound 1]
ERα [4]
  ERα partial agonist activity: lacks
ERα [3]
  ERα selectivity relative to that of the triol agonist MPT: about 2.3 fold

## Cc1c(-c2ccc(O)cc2)nn(-c2ccc(O)cc2)c1-c1ccc(OCCN2CCCCC2)cc1 [MPP, Methyl-piperidino-pyrazole]
ERα [4]
  ERα partial agonist activity: residual, low ERα partial agonist activity

From paper PMC2711511 (Bioorganic & medicinal chemistry letters, 2008)
